Measurements from patent US9388216B2, “Methods of treating reproductive cancer” (Medical Research Council, priority 2006, dated 2016).
Non-standard residues stand in square brackets, D forms with d. pGlu = O=C1CC[C@@H](C(=O)O)N1

Tests used:
[1] = system: GnRH-induced PARP cleavage (caspase 3 activation) in HEK293/rGnRHR cells; test: Inhibition of GnRH-induced PARP cleavage by chemical inhibitors; settings: for remaining GnRH I-induced PARP cleavage, mean±S.E.M.: 100 nM GnRH I plus inhibitor; for remaining GnRH I-induced PARP cleavage, mean±S.E.M. / remaining GnRH II-induced PARP cleavage, mean±S.E.M. / effect on GnRH-induced apoptosis / caspase 3 activation (in words): 48 h, complete medium; for remaining GnRH II-induced PARP cleavage, mean±S.E.M.: 100 nM GnRH II plus inhibitor
Protocol: Cells were maintained in Dulbecco's modified Eagles medium (DMEM) (Sigma) supplemented with 10% fetal bovine serum, 2% glutamine and 1% penicillin (10,000 units/ml)/streptomycin (10,000 μg/ml) at 37° C. in a humidified 5% CO2 atmosphere. Cell treatments were performed at 37° C. in serum-containing medium with varying molecule concentrations and time periods, as indicated in the figure legends.
After stimulation of cells growing on 6-well plates, cell monolayers were placed on ice, washed twice in ice-cod Dulbecco's phosphate buffered saline (DPBS), and lysed in a NP-40-based solubilisation buffer (5 mM HEPES, 0.25 M NaCl, 0.5% NP-40, 10% glycerol, 2 mM EDTA pH8.0, 1 mM PMSF, 0.01 mg/ml leupeptin, 1 mM Na2VO4). Solubilised lysates were clarified by centrifugation at 15,000 rpm for 15 min. A 50 μl-aliquot of clarified whole-cell lysate was mixed with an equal volume of 2× Laemmli sample buffer, resolved by SDS-polyacrylamide gel electrophoresis (SDS-PAGE) and transferred to a PVDF membrane (NEN Life Sciences/PerkinElmer Life and Analytical Sciences; Beaconsfield, Bucks, UK). These membranes were blocked in a 4% bovine serum albumin, 50 mM Tris-HCl, pH 7.0, 0.05% Tween-20 and 0.05% NP-40 blocking solution. […] Apoptosis was assessed by incubating the PVDF membranes with a 1:1,000 dilution of anticleaved PARP rabbit polyclonal antibody at 4° C. with gentle shaking overnight. […] An alkaline phosphatase conjugated IgG (Sigma) was employed as a secondary antibody in all cases. Visualization of proteins was performed using enzyme-linked chemifluoresence (Amersham Biosciences Ltd.; St. Giles, Bucks, UK) and quantified using a Typhoon 9400 Phosphorimager.
Then, cells were lysed and a western blot with specific anti-cleaved PARP antibody was carried out as explained before.

[2] = system: HEK293/rGnRHR cells; test: Cell growth inhibition (viable cell number after 5 days of continuous treatment) in HEK293/rGnRHR cells; assay type: cell-based, rat; settings: for antiproliferative/apoptotic potency compared with GnRH I (in words) / fold more potent than GnRH I to induce cell death / inhibit cell growth: rat receptor; for antiproliferative/apoptotic potency compared with GnRH I (in words): 5 days
Protocol: (§1) For the first method, HEK293 cells expressing various GnRH receptor constructs were seeded into 12-well PLL-coated plates at 50,000 cells (in 1 ml)/well and cultured with continuous GnRH exposure for five days, adding fresh peptide every day. Trypan Blue-excluding cells were then counted with a haemocytometer. For the second method, cells were seeded into 96-well plates at 5,000 cells (in 100 μl)/well and treated exactly as described before. 10 μl WST-1 reagent (Roche Diagnostics Ltd.; Lewes, East Sussex, UK) was added directly to each well and, after 3 h at 37° C., absorbance was read at 450 nm (with a reference at 690 nm) against a background control as blank using a microplate ELISA reader.
(§2) Bar graphs and curves were obtained using Prism 3.0 (GraphPad Software, Inc.: San Diego, Calif., USA). IC50 and EC50 values were determined by non-linear regression analysis. Curves were best-fitted to a one-site model. […] Values were normalised as specified in the figure legends.
(§3) Antiproliferation/apoptosis was estimated by determining cell number after five days of continuous exposure to the peptides. In parallel, this response was compared to the classical Gq coupled-PLCβ activation induced by GnRH peptides, as measured by the very well characterized inositol phosphates accumulation protocol. Both outputs were determined in two HEK293 cell lines; one expressing the rat receptor and the other expressing the human receptor. The human cell line was included in the study because this species may be clinically more relevant and the very low receptor expression may better reflect the in vivo tumoural state. In fact, due to poor binding, the precise affinity of the analogues on this cell line could not be determined.

[3] = system: HEK293/hGnRHR cells; test: Cell growth inhibition (viable cell number after 5 days of continuous treatment) in HEK293/hGnRHR cells; assay type: cell-based, human; settings: for antiproliferative/apoptotic potency compared with GnRH I (in words) / fold more potent than GnRH I to induce cell death / inhibit cell growth: human receptor; for antiproliferative/apoptotic potency compared with GnRH I (in words): 5 days
Protocol: as §1, §2, §3

[4] = molecular target: T1, rat GnRH receptor (Rattus norvegicus, UniProt P30969); test: Competition binding assay with [125I][His5,D-Trp6]GnRH I in HEK293/rGnRHR cells
T1 construct: expressed in transfected cells
T1 sequence (P30969 1-327): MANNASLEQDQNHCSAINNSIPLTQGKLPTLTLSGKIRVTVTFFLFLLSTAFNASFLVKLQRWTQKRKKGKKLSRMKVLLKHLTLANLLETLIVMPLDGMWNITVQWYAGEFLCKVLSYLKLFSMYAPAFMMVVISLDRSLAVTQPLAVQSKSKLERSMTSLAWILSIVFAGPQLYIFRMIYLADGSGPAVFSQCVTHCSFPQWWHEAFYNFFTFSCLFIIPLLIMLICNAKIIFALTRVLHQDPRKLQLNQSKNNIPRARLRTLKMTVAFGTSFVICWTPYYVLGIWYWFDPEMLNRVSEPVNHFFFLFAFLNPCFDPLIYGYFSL
Protocol: Cell monolayers growing on 12-well PLL-coated plates were incubated in binding buffer (10 mM HEPES, 1% BSA in DMEM) containing […] radioligand (100,000 cpm) and 10-6-10-12 M unlabelled ligand. Equilibrium was reached after incubation for 4 h at 4° C. Cells were then lysed in 0.1 M NaOH and the radioactivity in the extract was measured in a 1261 Wallac MultiGamma counter.
as §2

[5] = molecular target: T1, rat GnRH receptor; test: Accumulation of total inositol phosphates (PLCβ activation) in HEK293/rGnRHR cells; assay type: cell-based
Protocol: HEK293 cells stably expressing the GnRH receptor growing on 12-well PLL-coated plates were pre-labelled with 1 μCi/ml myo-[H3]inositol (Amersham) in inositol-free DMEM (Sigma) for 48 h. On the day of the experiment, cells were washed with assay buffer (140 mM NaCl, 20 mM HEPES, 8 mM glucose, 4 mM KCl, 1 mM MgCl2, 1 mM CaCl2, 1 mg/ml BSA), pre-incubated with 10 mM LiCl (in assay buffer) for 30 min, and stimulated with different concentrations of the peptides (in the same buffer) for 1 h at 37° C. Incubations were terminated by removing the culture medium and lysing the cells in ice cold 10 mM formic acid for 30 min. Inositol phosphates were extracted by chromatography with an anion exchange resin (AG® 1-X8, Bio-Rad) using 1 M ammonium formate and 0.1 M formic acid. Liquid scintillant was added to the final eluate and [3H]inositol phosphates were measured in the β-counter.
as §2

[6] = molecular target: T2, human GnRH receptor (Homo sapiens, UniProt P30968); test: Accumulation of total inositol phosphates (PLCβ activation) in HEK293/hGnRHR cells; assay type: cell-based
T2 construct: expressed in transfected cells
T2 sequence (P30968 1-328): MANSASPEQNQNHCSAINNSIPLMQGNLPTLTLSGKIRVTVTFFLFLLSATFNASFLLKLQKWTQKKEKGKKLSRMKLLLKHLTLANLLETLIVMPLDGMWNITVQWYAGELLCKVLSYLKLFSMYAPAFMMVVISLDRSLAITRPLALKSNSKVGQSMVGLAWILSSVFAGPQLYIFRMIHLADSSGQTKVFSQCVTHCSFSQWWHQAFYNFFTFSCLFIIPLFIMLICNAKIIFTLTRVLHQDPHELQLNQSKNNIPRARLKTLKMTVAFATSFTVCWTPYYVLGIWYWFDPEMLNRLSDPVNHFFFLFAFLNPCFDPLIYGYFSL

[7] = HEK293/human GnRH receptor cells

NCCOB(c1ccccc1)c1ccccc1 [2-APB, 2-aminoethyl-diphenilborinate]
PARP cleavage caused by the inhibitor itself (cytotoxicity) ([1]; inhibitor alone): significant PARP cleavage by themselves

COc1cc2ncnc(Nc3cccc(Cl)c3)c2cc1OC [AG1478]
remaining GnRH I-induced PARP cleavage, mean±S.E.M. [1]: 13±10
remaining GnRH II-induced PARP cleavage, mean±S.E.M. [1]: 18±11

COc1ccc2c(c1)c(C1=C(c3c[nH]c4ccccc34)C(=O)NC1=O)cn2CCCN(C)C [Gö 6983]
remaining GnRH I-induced PARP cleavage, mean±S.E.M. [1]: 47±22
remaining GnRH II-induced PARP cleavage, mean±S.E.M. [1]: 35±18
effect on GnRH-induced apoptosis / caspase 3 activation (in words) [1]: clearly more efficient than Ro-31-8220
extent of the effect upon GnRH-stimulated apoptosis ([1]; discussion): ~40%

O=C1c2ccccc2-c2n[nH]c3cccc1c23 [JNKII inhibitor]
remaining GnRH I-induced PARP cleavage, mean±S.E.M. [1]: 84±29
remaining GnRH II-induced PARP cleavage, mean±S.E.M. [1]: 72±22

COc1cccc(-c2cc(=O)c3ccccc3o2)c1N [PD98059]
remaining GnRH I-induced PARP cleavage, mean±S.E.M. [1]: 17±6
remaining GnRH II-induced PARP cleavage, mean±S.E.M. [1]: 14±13

CC(C)(C)n1nc(-c2ccc(Cl)cc2)c2c(N)ncnc21 [PP2]
remaining GnRH I-induced PARP cleavage, mean±S.E.M. [1]: 20±4
remaining GnRH II-induced PARP cleavage, mean±S.E.M. [1]: 18±2

Cn1cc(C2=C(c3cn(CCCSC(=N)N)c4ccccc34)C(=O)NC2=O)c2ccccc21 [Ro-31-8220]
effect on GnRH-induced apoptosis / caspase 3 activation (in words) [1]: no effect

CO[C@H]1[C@@H](OC)C[C@H](C)[C@@H](OC)C2=CC(=O)C=C(NC(=O)/C(C)=C/C=C\[C@H](OC)[C@@H](OC(N)=O)/C(C)=C/[C@@H]1C)C2=O [herbimycin A]
remaining GnRH I-induced PARP cleavage, mean±S.E.M. [1]: 9±1
remaining GnRH II-induced PARP cleavage, mean±S.E.M. [1]: 41±4

PTX: Gi inhibitor from Biomol
effect on GnRH-induced apoptosis / caspase 3 activation (in words) [1]: not having any effect

[His5,Trp7]GnRH I: double mutant GnRH I incorporating His5 and Trp7 of GnRH II ([pGlu]HWSHGWRPG-NH2; ends and bridges not checked; UniProt P01148 24-33, looked up, variant Y5H L7W)
antiproliferative/apoptotic potency compared with GnRH I (in words) [2]: improved antiproliferative/apoptotic capacity
antiproliferative/apoptotic potency compared with GnRH I (in words) [3]: improved antiproliferative/apoptotic capacity

[His5,Tyr8]GnRH I: double mutant GnRH I incorporating His5 and Tyr8 of GnRH II ([pGlu]HWSHGLYPG-NH2; ends and bridges not checked; UniProt P01148 24-33, looked up, variant Y5H R8Y)
affinity compared with GnRH I (in words) [4]: features intermediate between GnRH I and [Tyr8]GnRH I
potency to stimulate inositol phosphates accumulation / PLCβ activation compared with GnRH I (in words) [5]: features intermediate between GnRH I and [Tyr8]GnRH I
potency to stimulate inositol phosphates accumulation / PLCβ activation compared with GnRH I (in words) [6]: features intermediate between GnRH I and [Tyr8]GnRH I
antiproliferative/apoptotic potency compared with GnRH I (in words) [2]: more potent to inhibit cell growth than GnRH I
antiproliferative/apoptotic potency compared with GnRH I (in words) [3]: more potent to inhibit cell growth than GnRH I

[His5]GnRH I: GnRH I with Tyr5 substituted by His5 of GnRH II (QHWSHGLRPG; Gonadoliberin-1; UniProt P01148 24-33, looked up, variant Y5H)
affinity compared with GnRH I (in words) [4]: higher affinity than GnRH I
potency to stimulate inositol phosphates accumulation / PLCβ activation compared with GnRH I (in words) [5]: better potencies
potency to stimulate inositol phosphates accumulation / PLCβ activation compared with GnRH I (in words) [6]: better potencies
antiproliferative/apoptotic potency compared with GnRH I (in words) [2]: better potencies
antiproliferative potency (in words) [3, 7]: most potent antiproliferative/apoptotic agent ever described
antiproliferative/apoptotic potency compared with GnRH I (in words) [3]: better potencies

[Trp7,Tyr8]GnRH I: double mutant GnRH I incorporating Trp7 and Tyr8 of GnRH II ([pGlu]HWSYGWYPG-NH2; ends and bridges not checked; UniProt P01148 24-33, looked up, variant L7W R8Y)
affinity compared with GnRH I (in words) [4]: almost identical to those of [Tyr8]GnRH I
potency to stimulate inositol phosphates accumulation / PLCβ activation compared with GnRH I (in words) [5]: almost identical to those of [Tyr8]GnRH I
potency to stimulate inositol phosphates accumulation / PLCβ activation compared with GnRH I (in words) [6]: almost identical to those of [Tyr8]GnRH I
antiproliferative/apoptotic potency compared with GnRH I (in words) [2]: almost identical to those of [Tyr8]GnRH I
antiproliferative/apoptotic potency compared with GnRH I (in words) [3]: almost identical to those of [Tyr8]GnRH I

[Trp7]GnRH I: GnRH I with Leu7 replaced by Trp7 of GnRH II (QHWSYGWRPG; Gonadoliberin-1; UniProt P01148 24-33, looked up, variant L7W)
affinity compared with GnRH I (in words) [4]: did not modify the affinity and PLCβ activation capacity
potency to stimulate inositol phosphates accumulation / PLCβ activation compared with GnRH I (in words) [5]: did not modify the affinity and PLCβ activation capacity
potency to stimulate inositol phosphates accumulation / PLCβ activation compared with GnRH I (in words) [6]: did not modify the affinity and PLCβ activation capacity
fold more potent than GnRH I to induce cell death / inhibit cell growth [2]: 9.1 fold
fold more potent than GnRH I to induce cell death / inhibit cell growth [3]: 19.3 fold

[Tyr8]GnRH I: GnRH I with Arg8 substituted by Tyr8 of GnRH II (QHWSYGLYPG; Gonadoliberin-1; UniProt P01148 24-33, looked up, variant R8Y)
affinity compared with GnRH I (in words) [4]: very low affinity
fold less potent to stimulate PLCβ compared to GnRH I [5]: 27.3 fold
fold less potent to stimulate PLCβ relative to GnRH I [6]: 23.7 fold
fold more potent to suppress cell growth relative to GnRH I ([2]; range across rat and human receptor cell lines (discussion)): 4-11 fold
fold more potent than GnRH I to induce cell death / inhibit cell growth [2]: 4.2 fold
antiproliferative effect compared with inositol phosphate production, selectivity (in words) [3, 7]: most selective antiproliferative/apoptotic analogue
fold more potent than GnRH I to induce cell death / inhibit cell growth [3]: 10.7 fold
